Source: PMC8096218, “Global RNA profiles show target selectivity and physiological effects of peptide-delivered antisense antibiotics” (Nucleic Acids Research, 2021)

Columns and labels:
[1] = system: wild-type Salmonella enterica serovar Typhimurium strain LT2; assay: MIC determination by broth microdilution; format: cell-based; conditions: Table 3; ∼10^5 cfu/ml; three biological replicates
Description: MIC values were determined by broth microdilution according to standard protocols with a few modifications ([26]). An overnight bacterial cell culture, supplemented with the appropriate antibiotic when needed, was diluted 1:100 in fresh MHB and grown to OD600 0.5. The obtained culture was diluted to ∼10^5 cfu/ml or 10^6 cfu/ml, as indicated, in non-cation-adjusted MHB. Subsequently, 190 μl bacterial solution was dispensed into a 96-well plate (Thermo Fisher Scientific) along with 10 μl of a 20x PPNA, PNA or peptide working solution. Growth was monitored by measuring the OD at 600 nm every 20 min in a Synergy H1 plate reader (Biotek) with continuous double-orbital shaking (237 cpm) at 37°C for 24 h.
Fig. S5. Growth k inetics for MIC determ ination of 10^5 cfu/m l Salmonella wt (LT 2) and its isogenic
Pho PC m utant in the presen ce of var ying co ncentra tio n s of the in dicat ed co njugat e s. ( A) KFF-acpP,
KFF-acpP-scram bled (scr) or KFF peptide in s erial dilutions from 10 µM to 0.3 µM. ( B) RXR- acpP,
RXR- acpP-scram bled (scr) or RXR peptide in serial dilutions from 10 µM to 0.3 µ M. ( C) T at-acpP,
T at-acpP-scram bled (scr) or T at peptide in serial dilutions from 20 µM to 0.6 µM. Data represent
the average of three biological replicates, error bars indicate standard error of the m ean (SEM).
(1 picture or pasted object on this page, not shown here)

Salmonella wt = assay: Kinetics of bactericidal effects (cfu determination and spot assay); format: cell-based, Salmonella enterica serovar Typhimurium; conditions: ∼10^6 cfu/ml, 5 μM KFF-acpP, 5 μM RXR-acpP, 10 μM Tat-acpP versus scrambled counterparts; for time post treatment from which killing / reduced cfu/ml was visible: time points 15, 20, 40, 60, 120 min, performed three times
Description: An overnight bacterial cell culture was diluted 1:100 in fresh MHB and grown to OD600 0.5. The obtained culture was diluted to approximately 10^6 cfu/ml in non-cation-adjusted MHB. Afterwards, aliquots of 10 μl were directly used as input condition for cfu determination and spot assay on LB agar plates. Regarding the latter, serial dilutions were prepared as indicated, to evaluate the alteration of living bacteria upon exposure to the different PPNAs. At the same time, 190 μl of this bacterial solution was placed into 2 ml eppendorf tubes along with 10 μl of a 20× on-target or scrambled PPNA solution, adjusting the indicated MICs. At the indicated time points post treatment, aliquots were used for cfu determination and spot assay.
Figure 3. Kinetics of bactericidal effects for (A) 5 μM KFF-acpP versus 5 μM KFF-acpP-scr, (B) 5 μM RXR-acpP versus 5 μM RXR-acpP-scr and (C) 10 μM Tat-acpP versus 10 μM Tat-acpP-scr against Salmonella wt (∼10^6 cfu/ml). After the indicated time points post treatment (15, 20, 40, 60, 120 min), aliquots of each sample were harvested to determine the number of viable cells over time (cfu/ml […]; left panels). Additional aliquots were subjected to spot assays on LB agar plates, including the indicated dilutions (right panels). The experiment was performed three times. Error bars indicate standard error of the mean.

[2] = system: Salmonella gene expression; assay: RNA-seq transcriptomic response; format: cell-based, Salmonella enterica serovar Typhimurium; conditions: 15 min
Description: Bacterial overnight cultures were diluted 1:100 in fresh MHB and grown to OD600 0.5. The obtained cultures were diluted to ∼10^6 cfu/ml in non-cation-adjusted MHB. Afterward, the bacterial solution was transferred into low-binding 5 ml tubes (LABsolute) along with the 20× PNA, peptide or PPNA solution. The final concentrations were 5 μM for KFF- and RXR-PNAs, and 10 μM for Tat-PNAs. Equimolar concentrations were used for the respective peptide control conditions. As a negative control, cells were treated with the respective volume of sterile nuclease-free water, which was used as solvent for the test compounds.
A time kinetic was performed for subsequent northern blot analysis (5, 10, 15 min), in which the reaction was stopped at the indicated time points by using RNAprotect Bacteria (Qiagen). For RNA-seq analyses, adding RNAprotect Bacteria at 15 min post treatment stopped the reactions with the indicated PPNA constructs or the respective peptide. After vortexing for 5 s, the samples were incubated at room temperature for 10 min, followed by cell pelleting at 4°C and 21 100 ×g for 20 min. Pellets were directly used for RNA isolation or stored at –20°C (<2 days) until further processing. RNA was purified from bacterial pellets using isolation protocol #3, as described above (0.5 mg/ml lysozyme, miRNeasy).
DNase treatment, cDNA library preparation and sequencing was conducted at Vertis (Munich, Germany). The RNA samples were first fragmented using ultrasound (4 pulses of 30 s each at 4°C). Then, an oligonucleotide adapter was ligated to the 3′ ends of the RNA molecules. First-strand cDNA synthesis was performed using M-MLV reverse transcriptase and the 3′ adapter as primer. The first-strand cDNA was purified and the 5′ Illumina TruSeq sequencing adapter was ligated to the 3′ end of the antisense cDNA. The resulting cDNA was PCR-amplified to about 10–20 ng/μl using a high fidelity DNA polymerase. The cDNA was purified using the Agencourt AMPure XP kit (Beckman Coulter Genomics) and was analyzed by capillary electrophoresis. For Illumina NextSeq sequencing, the samples were pooled in approximately equimolar amounts. The cDNA pool was sequenced on an Illumina NextSeq 500 system using 75 bp read length.
Reads from the RNA-Seq experiments were trimmed, filtered and mapped against the S. enterica subsp. enterica serovar Typhimurium SL1344 reference genome and the three plasmids pSLT_SL1344, pCol1B9_SL1344 (other name is p2), and pRSF1010_SL1344 ([19]). BBDuk was applied to trim bases with a Phred quality score of <10, and adapters were removed simultaneously. Reads were then mapped against the reference genome using BBMap (v38.84) and then assigned genomic features, including both coding sequences and annotated sRNAs ([19],[29]) using the featureCounts method of the Subread (2.0.1) package.
All downstream analysis was performed using packages from the R/Bioconductor project. The raw read counts were imported and analyzed with edgeR (v3.30.0). Each set of PNA-peptide conjugate experiments (i.e. experiments with KFF, RXR and Tat peptide) was analyzed simultaneously. Genes with less than 14.6 counts per million (CPM) in at least three libraries were filtered. This cutoff value was calculated using 10/L, where L is the library size of the smallest sample (minimum library size) in millions.
Raw read counts were normalized by trimmed mean of M values (TMM) normalization. Differential expression analysis was conducted using edgeR ([31]). Estimation of quasi-likelihood (QL) dispersions was then run with the […] function. Then contrasts between all samples versus the water controls were created as input for the glmQLTest function.
Genes with an absolute fold change >2 and an adjusted P-value (Benjamini–Hochberg, ([32])) <0.001 were considered differentially expressed.

[3] = edgeR, versus water, 5 μM RXR-constructs, 10 μM Tat-constructs, triplicates, listed as PNATAT
[4] = edgeR, versus water, 5 μM KFF-/RXR-constructs, 10 μM Tat-constructs, triplicates, listed as PNAKFF
[5] = edgeR, versus water, 5 μM RXR-constructs, 10 μM Tat-constructs, triplicates, listed as PNARXR

| Sequence | MIC in μM, LT2 wt [1] [µM] | bactericidal effects (cfu/ml, spot assay) (Salmonella wt) | time post treatment from which killing / reduced cfu/ml was visible (Salmonella wt) [min] | number of differentially expressed sRNAs, apart from AmgR upregulation ([2]; RNA-seq, 10 μM) | logFC SL1344_0066A [2, 3] | logFC SL1344_2742 [2, 3] | logFC sseG ([2]; edgeR, versus water, 10 μM, triplicates) | logFC recJ ([2]; edgeR, versus water, 10 μM, triplicates, listed as PNATAT) | number of differentially expressed genes ([2]; absolute fold change >2 and FDR-adjusted P-value <0.001 versus water, 5 μM KFF-/RXR-constructs, 10 μM Tat-constructs) | upregulation of AmgR transcript levels ([2]; RNA-seq, 5 μM) [fold] | upregulation of mig-14, virK and yfiA mRNAs ([2]; RNA-seq, 5 μM) | logFC yfiA ([2]; edgeR, versus water, 5 μM KFF-/RXR-constructs, 10 μM Tat-constructs, triplicates) | logFC mig-14 [2, 4] | logFC virK [2, 4] | number of downregulated sRNAs, apart from the induction of AmgR ([2]; RNA-seq, 5 μM) | upregulation of mig-14 ([2]; RNA-seq, 5 μM) [fold] | logFC SL1344_0066A [2, 5] | logFC SL1344_2742 [2, 5] | logFC mgtA [2, 5] | logFC hfq ([2]; edgeR, versus water, 5 μM, triplicates) |
| --- | --- | --- | --- | --- | --- | --- | --- | --- | --- | --- | --- | --- | --- | --- | --- | --- | --- | --- | --- | --- |
| GRKKKRRQRRRYK [Tat-acpP, Tat peptide conjugated to 10-mer antisense PNA against acpP] | 2.5 to 5 | time-delayed and less pronounced | ≥ 40 | five | 4.741 | 3.794 | 3.37 | 1.967 | – | – | – | – | – | – | – | – | – | – | – | – |
| KFFKFFKFFK [KFF-acpP, KFF peptide conjugated to 10-mer antisense PNA against the translational start site of acpP] | 1.25 | fast and strong killing | ≥ 15 | – | – | – | – | – | 5 | ~1.9 | 2- to 4 fold | 1.09 | 1.3466 | 1.758 | – | – | – | – | – | – |
| RXRRXRRXRRXRXB [RXR-acpP, RXR peptide conjugated to 10-mer antisense PNA against acpP] | 1.25 | fast and strong killing | ≥ 15 | – | – | – | – | – | – | – | – | – | – | – | four | 1.89 | 4.762 | 3.54 | 1.7 | -1.309 |
